Values joined by “and” are separate entries in the source; they are usually repeats but may differ in a detail not shown here. Equal values may be shown once. Marks after values point to notes of the source that are not given here.
System: anti collagen antibodies induced arthritis (ACAIA)
Assay: Anti collagen antibodies induced arthritis (ACAIA) in mice, intra-articular treatment: paw thickness, arthritis clinical score, body weight;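 further: mouse arthritis induced by IV anti-collagen mAb on day 0 plus IP LPS on day 4, with body weight, caliper paw thickness and 0-4 paw score tracked against a day 0 baseline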
Settings: for Clinical score of treated leg (Avg.) / Paw thickness Avg. Delta untreated -treated / Paw thickness of treated leg (Avg.) / Paw thickness of untreated leg (Avg.) / Percent change of weight per day (Av) / Percent change of weight per day (individual animal) / Δ clinical score untreated -treated, Avg. Delta: 10 mg/kg IA (Group 2)
[1] = BETi1 0.01 mg/kg IA (Group 5), Av
[2] = BETi1 0.01 mg/kg IA (Group 5), individual animals, 0.01 mg/kg
[3] = BETi1 0.1 mg/kg IA (Group 4), Av

Cn1cc(-c2cccc(O)c2Oc2ccccc2)c2cc[nH]c2c1=O [BETi1]
Clinical score of treated leg (Avg.) (Baseline): 0.00 points | Paw thickness Avg. Delta untreated -treated (Baseline): −0.05 mm | Paw thickness of treated leg (Avg.) (Baseline): 2.12 mm | Paw thickness of untreated leg (Avg.) (Baseline): 2.07 mm | Percent change of weight per day (Av) (Baseline): 100.00% | Percent change of weight per day (individual animal) (Baseline): 100% | Δ clinical score untreated -treated, Avg. Delta (Baseline): 0.00 points | Clinical score of treated leg (Avg.) (Day 3): 0.00 points | Paw thickness Avg. Delta untreated -treated (Day 3): −0.01 mm | Paw thickness of treated leg (Avg.) (Day 3): 2.16 mm | Paw thickness of untreated leg (Avg.) (Day 3): 2.15 mm | Percent change of weight per day (Av) (Day 3): 100.21% | Percent change of weight per day (individual animal) (Day 3): 99.5% and 99.54% and 102.4038% and 101.3825% and 100.4673% and 98.1982% and 100% | Δ clinical score untreated -treated, Avg. Delta (Day 3): 0.00 points | Clinical score of treated leg (Avg.) (Day 4): 0.00 points | Paw thickness Avg. Delta untreated -treated (Day 4): −0.04 mm | Paw thickness of treated leg (Avg.) (Day 4): 2.24 mm | Paw thickness of untreated leg (Avg.) (Day 4): 2.20 mm | Percent change of weight per day (Av) (Day 4): 100.95% | Percent change of weight per day (individual animal) (Day 4): 100% and 99.07% and 102.8846% and 103.2258% and 100.9346% and 98.65% and 101.8779% | Δ clinical score untreated -treated, Avg. Delta (Day 4): 0.00 points | Clinical score of treated leg (Avg.) (Day 5): 0.00 points | Paw thickness Avg. Delta untreated -treated (Day 5): 0.01 mm | Paw thickness of treated leg (Avg.) (Day 5): 2.16 mm | Paw thickness of untreated leg (Avg.) (Day 5): 2.17 mm | Percent change of weight per day (Av) (Day 5): 92.17% | Percent change of weight per day (individual animal) (Day 5): 91.58% and 93.06% and 92.79% and 94.86% and 89.64% and 91.08% | Δ clinical score untreated -treated, Avg. Delta (Day 5): 0.00 points | Clinical score of treated leg (Avg.) (Day 6): 0.00* points | Paw thickness Avg. Delta untreated -treated (Day 6): 0.34*** mm | Paw thickness of treated leg (Avg.) (Day 6): 2.17*** mm | Paw thickness of untreated leg (Avg.) (Day 6): 2.51 mm | Percent change of weight per day (Av) (Day 6): 92.02% | Percent change of weight per day (individual animal) (Day 6): 93.56% and 91.67% and 92.31% and 91.1215% and 91.89% and 91.5493% | Clinical score of treated leg (Avg.) (Day 7): 0.50* points | Paw thickness Avg. Delta untreated -treated (Day 7): 0.77*** mm | Paw thickness of treated leg (Avg.) (Day 7): 2.23** mm | Paw thickness of untreated leg (Avg.) (Day 7): 3.00 mm | Percent change of weight per day (Av) (Day 7): 91.86% | Percent change of weight per day (individual animal) (Day 7): 92.57% and 89.81% and 93.75% and 91.59% and 91.44% and 92.02% | Clinical score of treated leg (Avg.) (Day 8): 0.83 points | Paw thickness Avg. Delta untreated -treated (Day 8): 1.04*** mm | Paw thickness of treated leg (Avg.) (Day 8): 2.18** mm | Paw thickness of untreated leg (Avg.) (Day 8): 3.22 mm | Percent change of weight per day (Av) (Day 8): 90.62% | Percent change of weight per day (individual animal) (Day 8): 92.08% and 88.89% and 94.23% and 87.85% and 90.99% and 89.67% | Clinical score of treated leg (Avg.) (Day 10): 0.17* points | Paw thickness Avg. Delta untreated -treated (Day 10): 1.27 mm | Paw thickness of treated leg (Avg.) (Day 10): 2.14** mm | Paw thickness of untreated leg (Avg.) (Day 10): 3.41 mm | Percent change of weight per day (Av) (Day 10): 91.54% | Percent change of weight per day (individual animal) (Day 10): 90.59% and 88.89% and 95.19% and 91.59% and 92.34% and 90.61% | Clinical score of treated leg (Avg.) (Day 12): 0.67 points | Paw thickness Avg. Delta untreated -treated (Day 12): 1.32 mm | Paw thickness of treated leg (Avg.) (Day 12): 2.17 mm | Paw thickness of untreated leg (Avg.) (Day 12): 3.48 mm | Percent change of weight per day (Av) (Day 12): 94.92% | Percent change of weight per day (individual animal) (Day 12): 95.54% and 93.98% and 98.08% and 92.99% and 95.05% and 93.9% | Δ clinical score untreated -treated, Avg. Delta (Day 12): 2.67 points | Δ clinical score untreated -treated, Avg. Delta (Day 6, * p < 0.05 vs. Vehicle): 0.83* points | Δ clinical score untreated -treated, Avg. Delta (Day 7, * p < 0.05 vs. Vehicle): 1.33* points | Δ clinical score untreated -treated, Avg. Delta (Day 8, * p < 0.05 vs. Vehicle): 2.17* points | Δ clinical score untreated -treated, Avg. Delta (Day 10, * p < 0.05 vs. Vehicle): 2.83* points | reduction of arthritis score, treated vs untreated paw (10 mg/kg IA, day 12): 79.9% | reduction of paw thickness, treated vs untreated paw (10 mg/kg IA, day 12): 37.6% | Weight per day, Baseline [1]: 20.6 g | Weight per day, Day 3 [1]: 20.4 g | Weight per day, Day 4 [1]: 19.9 g | Weight per day, Day 5 [1]: 18.5 g | Weight per day, Day 6 [1]: 18.1 g | Weight per day, Day 7 [1]: 18.9 g | Weight per day, Day 8 [1]: 18.5 g | Weight per day, Day 10 [1]: 18.4 g | Weight per day, Day 12 [1]: 19.1 g | Weight per day, Baseline [2]: 21 g (2×) and 20.9 g and 21.5 g and 21.4 g and 19.4 g and 18.7 g | Weight per day, Day 3 [2]: 20.8 g and 20.6 g and 21.6 g and 20.9 g and 19.3 g and 18.8 g and 21 g | Weight per day, Day 4 [2]: 21.1 g and 20.8 g and 20.9 g and 21.6 g and 17.4 g and 17.8 g and 19.6 g | Weight per day, Day 5 [2]: 19.5 g and 18.7 g and 19.1 g and 20.2 g and 16.6 g and 16.8 g and 18.4 g | Weight per day, Day 6 [2]: 19.1 g and 19 g and 18.6 g and 19.9 g and 15.6 g and 16.5 g and 18.1 g | Weight per day, Day 7 [2]: 19.4 g and 19.3 g and 18.9 g and 20 g and 16 g and 19.9 g and 18.5 g | Weight per day, Day 8 [2]: 19.3 g and 19.7 g and 18.9 g and 20.1 g and 16 g and 16.9 g and 18.5 g | Weight per day, Day 10 [2]: 19.6 g and 19.5 g (2×) and 18.3 g and 16.2 g and 17.4 g and 18.6 g | Weight per day, Day 12 [2]: 19.9 g and 20 g (2×) and 19.1 g and 16.9 g and 18.2 g and 19.3 g | Weight per day, Baseline [3]: 20.4 g | Weight per day, Day 3 [3]: 20.6 g | Weight per day, Day 4 [3]: 20.3 g

From patent US20250339409A1, “USES OF PAN BET INHIBITORS” (VYNE THERAPEUTICS INC., priority 2021, published 2025)
